From ChEMBL document CHEMBL1201862, “PubChem BioAssay data set” (2004)
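Growth conditions: 96-well plates. Treatment: test compound, 48 hours, 5 concentrations. Analysis: linear interpolation between bracketing concentrations; unreached endpoints set to highest concentration. Here, GI50 denotes the concentration required for 50% inhibition of growth.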 The source made the active and inactive calls. Rule as the data show it: active = GI50 up to about 1.1 µM and inactive = higher.

Tests used:
Assay in all cases: NCI tumour cell line growth inhibition, 48 h
CCRF-CEM = system: CCRF-CEM
HCT-116 = system: HCT-116
HL-60 = system: HL-60
HT-29 = system: HT-29
NCI-H226 = system: NCI-H226
OVCAR-4 = system: OVCAR-4
OVCAR-8 = system: OVCAR-8
SF-295 = system: SF-295
SK-MEL-28 = system: SK-MEL-28
SK-MEL-2 = system: SK-MEL-2
SK-MEL-5 = system: SK-MEL-5
TK-10 = system: TK-10
UO-31 = system: UO-31
COLO 205 = system: COLO 205
DU-145 = system: DU-145
HOP-92 = system: HOP-92
MDA-N = system: MDA-N
NCI/ADR-RES = system: NCI/ADR-RES
Hs-578T = system: Hs-578T

| SMILES | GI50 (CCRF-CEM) | GI50 (HCT-116) | GI50 (HL-60) | GI50 (HT-29) | GI50 (NCI-H226) | GI50 (OVCAR-4) | GI50 (OVCAR-8) | GI50 (SF-295) | GI50 (SK-MEL-28) | GI50 (SK-MEL-2) | GI50 (SK-MEL-5) | GI50 (TK-10) | GI50 (UO-31) | GI50 (COLO 205) | GI50 (DU-145) | GI50 (HOP-92) | GI50 (MDA-N) | GI50 (NCI/ADR-RES) | GI50 (Hs-578T) |
| --- | --- | --- | --- | --- | --- | --- | --- | --- | --- | --- | --- | --- | --- | --- | --- | --- | --- | --- | --- |
| O=[N+]([O-])c1ccc(/C=C/c2ccc(/C=C/c3ccc([N+](=O)[O-])cc3[N+](=O)[O-])cc2)c([N+](=O)[O-])c1 | > 100 µM (inactive) | > 100 µM (inactive) | > 100 µM (inactive) | > 100 µM (inactive) | > 100 µM (inactive) | > 100 µM (inactive) | > 100 µM (inactive) | > 100 µM (inactive) | > 100 µM (inactive) | > 100 µM (inactive) | > 100 µM (inactive) | > 100 µM (inactive) | > 100 µM (inactive) | – | – | – | – | – | – |
| COc1ccc2c(c1)OCC1Cc3cccc(OC)c3OC21 (centres undefined) | 40 µM (inactive) | 45.1 µM (inactive) | – | 72.8 µM (inactive) | 67.3 µM (inactive) | – | 45.8 µM (inactive) | 64.6 µM (inactive) | – | 51.3 µM (inactive) | 17.7 µM (inactive) | 40.3 µM (inactive) | 30.3 µM (inactive) | 41.6 µM (inactive) | > 100 µM (inactive) | > 100 µM (inactive) | 50.5 µM (inactive) | 31.1 µM (inactive) | – |
| COC(=O)[C@@]12CCCC(=O)[C@@H]1[C@H]1CCC[C@H]12 | > 100 µM (inactive) | > 100 µM (inactive) | – | > 100 µM (inactive) | > 100 µM (inactive) | > 100 µM (inactive) | > 100 µM (inactive) | > 100 µM (inactive) | > 100 µM (inactive) | > 100 µM (inactive) | > 100 µM (inactive) | > 100 µM (inactive) | > 100 µM (inactive) | > 100 µM (inactive) | > 100 µM (inactive) | > 100 µM (inactive) | > 100 µM (inactive) | > 100 µM (inactive) | – |
| CO/C(=N\N=C\c1ccc(Cl)cc1Cl)c1ccncc1 | > 10 µM (inactive) | > 10 µM (inactive) | > 10 µM (inactive) | > 10 µM (inactive) | > 10 µM (inactive) | > 10 µM (inactive) | > 10 µM (inactive) | > 10 µM (inactive) | – | > 10 µM (inactive) | – | > 10 µM (inactive) | > 10 µM (inactive) | > 10 µM (inactive) | > 10 µM (inactive) | > 10 µM (inactive) | 4.51 µM (inactive) | > 10 µM (inactive) | – |
| CCOC(=O)C/C(=N\c1cc(C)on1)N(CC)CC.[O-][Cl+3]([O-])([O-])O | > 100 µM (inactive) | > 100 µM (inactive) | – | > 100 µM (inactive) | > 100 µM (inactive) | – | > 100 µM (inactive) | – | > 100 µM (inactive) | > 100 µM (inactive) | > 100 µM (inactive) | > 100 µM (inactive) | > 100 µM (inactive) | > 100 µM (inactive) | – | > 100 µM (inactive) | – | – | – |
| Nc1ccc(/N=N\c2ccc(-c3ccc(O)cc3)cc2)c2ccc(S(=O)(=O)O)cc12 | > 100 µM (inactive) | > 100 µM (inactive) | > 100 µM (inactive) | > 100 µM (inactive) | > 100 µM (inactive) | > 100 µM (inactive) | > 100 µM (inactive) | > 100 µM (inactive) | > 100 µM (inactive) | > 100 µM (inactive) | > 100 µM (inactive) | > 100 µM (inactive) | > 100 µM (inactive) | > 100 µM (inactive) | > 100 µM (inactive) | > 100 µM (inactive) | – | > 100 µM (inactive) | > 100 µM (inactive) |
| C=C(c1ccc2[nH]c(NC(=O)OC)nc2c1)c1cccs1 | – | 0.0675 µM (active) | – | 0.0568 µM (active) | 0.22 µM (active) | – | 0.299 µM (active) | 0.051 µM (active) | 3.47 µM (inactive) | 2.26 µM (inactive) | 0.0703 µM (active) | 0.22 µM (active) | 0.916 µM (active) | 0.129 µM (active) | 0.309 µM (active) | 0.975 µM (active) | – | 0.0488 µM (active) | 0.417 µM (active) |
| CCc1ccccc1NC(=O)C(C#N)C1=C(Cl)C(=O)c2ccccc2C1=O (centres undefined) | 3.41 µM (inactive) | 13 µM (inactive) | 26.2 µM (inactive) | 14.1 µM (inactive) | 15.3 µM (inactive) | 13.6 µM (inactive) | 17.9 µM (inactive) | 20.9 µM (inactive) | 16.9 µM (inactive) | 17.3 µM (inactive) | 15.3 µM (inactive) | 18.7 µM (inactive) | 13 µM (inactive) | 15.7 µM (inactive) | 17.4 µM (inactive) | 29.4 µM (inactive) | – | 16.7 µM (inactive) | 19.3 µM (inactive) |
